Results reported in PubChem BioAssay AID2060908 (Molecular Pharmacology Branch, DTP, NCI, 2025).

Test system: 186277-243-T-J2-PDC complex spheroids, viability
Experiment: Anticancer human tumor 186277-243-T-J2-PDC patient-derived colon adenocarcinoma cell line growth inhibition [RAS]
Details: for IC50: curve of first compound; for viability, T/C: stronger effect = lower value
How it was run: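 Multi-cell-type spheroids: tumor cells plus HUVEC endothelial cells and mesenchymal stem cells. RAS-pathway inhibitors were combined with targeted agents, each dosed in half-log steps down from clinical Cmax, or from 10 microM when Cmax was unknown.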

[1] = second compound 0.000949 µM, first compound 0.00316 µM
[2] = second compound 0.000949 µM, first compound 0.01 µM
[3] = second compound 0.000949 µM, first compound 0.0316 µM
[4] = second compound 0.000949 µM, first compound 0.1 µM
[5] = second compound 0.003 µM, first compound 0.00316 µM
[6] = second compound 0.003 µM, first compound 0.01 µM
[7] = second compound 0.003 µM, first compound 0.0316 µM
[8] = second compound 0.003 µM, first compound 0.1 µM
[9] = second compound 0.00949 µM, first compound 0.00316 µM
[10] = second compound 0.00949 µM, first compound 0.01 µM
[11] = second compound 0.00949 µM, first compound 0.0316 µM
[12] = second compound 0.00949 µM, first compound 0.1 µM
[13] = second compound 0.03 µM, first compound 0.00316 µM
[14] = second compound 0.03 µM, first compound 0.01 µM
[15] = second compound 0.03 µM, first compound 0.0316 µM
[16] = second compound 0.03 µM, first compound 0.1 µM
[17] = second compound 0.0949 µM, first compound 0.00316 µM
[18] = second compound 0.0949 µM, first compound 0.01 µM
[19] = second compound 0.0949 µM, first compound 0.0316 µM
[20] = second compound 0.0949 µM, first compound 0.1 µM
[21] = second compound 0.3 µM, first compound 0.00316 µM
[22] = second compound 0.3 µM, first compound 0.01 µM
[23] = second compound 0.3 µM, first compound 0.0316 µM
[24] = second compound 0.3 µM, first compound 0.1 µM
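Further: spheroids exposed to compounds for 7 days before viability read.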

## CC(C)n1nc(-c2ccc3oc(N)nc3c2)c2c(N)ncnc21 + CCn1c(-c2cc(N3CCN(C)CC3)cnc2C(C)OC)c2c3cc(ccc31)-c1csc(n1)CC(NC(=O)C1CC1C)C(=O)N1CCCC(N1)C(=O)OCC(C)(C)C2
Second compound 0.000949 µM
  IC50: 46.6 nM
Second compound 0.003 µM
  IC50: 27.5 nM
Second compound 0.00949 µM
  IC50: < 0.316 nM
Second compound 0.03 µM
  IC50: < 0.316 nM
Second compound 0.0949 µM
  IC50: < 0.316 nM
Second compound 0.3 µM
  IC50: < 0.316 nM
Second compound 0.000949 µM, first compound 0.000316 µM
  viability, T/C: 104%
Second compound 0.000949 µM, first compound 0.001 µM
  viability, T/C: 109%
[1]
  viability, T/C: 87.9%
[2]
  viability, T/C: 69.8%
[3]
  viability, T/C: 62.2%
[4]
  viability, T/C: 34.8%
Second compound 0.003 µM, first compound 0.000316 µM
  viability, T/C: 106%
Second compound 0.003 µM, first compound 0.001 µM
  viability, T/C: 104%
[5]
  viability, T/C: 88.3%
[6]
  viability, T/C: 72.9%
[7]
  viability, T/C: 46.7%
[8]
  viability, T/C: 20.1%
Second compound 0.00949 µM, first compound 0.000316 µM
  viability, T/C: 49.4%
Second compound 0.00949 µM, first compound 0.001 µM
  viability, T/C: 47.4%
[9]
  viability, T/C: 37.7%
[10]
  viability, T/C: 30.8%
[11]
  viability, T/C: 12.7%
[12]
  viability, T/C: 5.22%
Second compound 0.03 µM, first compound 0.000316 µM
  viability, T/C: 14.8%
Second compound 0.03 µM, first compound 0.001 µM
  viability, T/C: 12.5%
[13]
  viability, T/C: 9.71%
[14]
  viability, T/C: 6.52%
[15]
  viability, T/C: 4.01%
[16]
  viability, T/C: 2.6%
Second compound 0.0949 µM, first compound 0.000316 µM
  viability, T/C: 7.46%
Second compound 0.0949 µM, first compound 0.001 µM
  viability, T/C: 6.37%
[17]
  viability, T/C: 5.35%
[18]
  viability, T/C: 3.33%
[19]
  viability, T/C: 2.32%
[20]
  viability, T/C: 1.41%
Second compound 0.3 µM, first compound 0.000316 µM
  viability, T/C: 5.75%
Second compound 0.3 µM, first compound 0.001 µM
  viability, T/C: 5.69%
[21]
  viability, T/C: 4.23%
[22]
  viability, T/C: 2.81%
[23]
  viability, T/C: 2.02%
[24]
  viability, T/C: 1.43%

## C=CC(=O)Nc1cc(Nc2nccc(-c3cn(C)c4ccccc34)n2)c(OC)cc1N(C)CCN(C)C + CCn1c(-c2cccnc2C(C)OC)c2c3cc(ccc31)N1CCOC(CC(NC(=O)C(C(C)C)N(C)C(=O)C3(F)CCN(C(=O)C#CC(C)(C)N(C)C)CC3)C(=O)N3CCCC(N3)C(=O)OCC(C)(C)C2)C1
Second compound 0.000949 µM
  IC50: > 1000 nM
Second compound 0.003 µM
  IC50: > 1000 nM
Second compound 0.00949 µM
  IC50: > 1000 nM
Second compound 0.03 µM
  IC50: > 1000 nM
Second compound 0.0949 µM
  IC50: > 1000 nM
Second compound 0.3 µM
  IC50: > 1000 nM
[1]
  viability, T/C: 94.2%
[2]
  viability, T/C: 86.9%
[3]
  viability, T/C: 90.4%
[4]
  viability, T/C: 83.8%
Second compound 0.000949 µM, first compound 0.316 µM
  viability, T/C: 103%
Second compound 0.000949 µM, first compound 1 µM
  viability, T/C: 95.7%
[5]
  viability, T/C: 101%
[6]
  viability, T/C: 107%
[7]
  viability, T/C: 107%
[8]
  viability, T/C: 109%
Second compound 0.003 µM, first compound 0.316 µM
  viability, T/C: 110%
Second compound 0.003 µM, first compound 1 µM
  viability, T/C: 91.6%
[9]
  viability, T/C: 116%
[10]
  viability, T/C: 107%
[11]
  viability, T/C: 111%
[12]
  viability, T/C: 104%
Second compound 0.00949 µM, first compound 0.316 µM
  viability, T/C: 121%
Second compound 0.00949 µM, first compound 1 µM
  viability, T/C: 81%
[13]
  viability, T/C: 96.9%
[14]
  viability, T/C: 97.4%
[15]
  viability, T/C: 106%
[16]
  viability, T/C: 91.8%
Second compound 0.03 µM, first compound 0.316 µM
  viability, T/C: 101%
Second compound 0.03 µM, first compound 1 µM
  viability, T/C: 82.2%
[17]
  viability, T/C: 109%
[18]
  viability, T/C: 123%
[19]
  viability, T/C: 119%
[20]
  viability, T/C: 123%
Second compound 0.0949 µM, first compound 0.316 µM
  viability, T/C: 106%
Second compound 0.0949 µM, first compound 1 µM
  viability, T/C: 78.3%
[21]
  viability, T/C: 105%
[22]
  viability, T/C: 105%
[23]
  viability, T/C: 109%
[24]
  viability, T/C: 103%
Second compound 0.3 µM, first compound 0.316 µM
  viability, T/C: 82.8%
Second compound 0.3 µM, first compound 1 µM
  viability, T/C: 73.1%
